Test results taken from patent US8916557B2, “Substituted 4-Aryl-N-phenyl-1,3,5-triazin-2-amines” (Bayer Intellectual Property GmbH, priority 2011, dated 2014).

What was measured:
[1] = biological target: T1, CDK2/CycE (Homo sapiens, UniProt P24941); test: CDK2/CycE kinase assay (TR-FRET); type: biochemical; settings: Method 2, 10 μM ATP
T1 construct: GST; purchased ProQinase GmbH (Freiburg, Germany); host or cells: insect cells (Sf9)
In short: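 GST-CDK2/GST-CycE (Sf9-expressed, ~130 ng/ml) pre-incubated with compound 15 min, then reacted 25 min at 22 °C with 10 μM ATP and 0.75 μM biotinylated peptide in Tris pH 8.0. Phospho-substrate detected by TR-FRET (anti-pRb pSer807/811, Eu/XL665), 665/620 nm ratio.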

[2] = system: HeLa human cervical tumour cells; test: Proliferation assay (crystal violet), HeLa; type: cell-based; settings: read-out: Inhibition of HeLa cell proliferation
[3] = Caco-2 permeation assay; type: in vitro ADME; settings: human
Protocol: Cells were maintained at 37° C. in a humified 5% CO2 atmosphere. Medium was changed every 2-3 day. Before running the permeation assay, the culture medium was replaced by a FCS-free hepes-carbonate transport buffer (pH 7.2). For assessment of monolayer integrity the transepithelial electrical resistance (TEER) was measured. Test compounds were predissolved in DMSO and added either to the apical or basolateral compartment in final concentration of 2 μM in transport buffer. Before and after 2 h incubation at 37° C. samples were taken from both compartments. Analysis of compound content was done after precipitation with methanol by LC/MS/MS analysis. Apparent permeability (Papp) was calculated in the apical to basolateral (Papp A→B) and basolateral to apical (Papp B→A) directions. The apparent permeability was calculated using following equation: Papp=(Vr/Po)(1/S)(P2/t)
Where Vr is the volume of medium in the receiver chamber, Po is the measured peak area or height of the test drug in the donor chamber at t=o, S the surface area of the monolayer, P2 is the measured peak area of the test drug in the acceptor chamber after 2 h of incubation, and t is the incubation time. The efflux ratio basolateral (B) to apical (A) was calculated by dividing the Papp B−A by the Papp A-B. In addition the compound recovery was calculated. The following reference compounds were used for the classification of the permeability class: Antipyrine, Pyrazosin, Verapamil, Fluvastatin, Cimetidine, Ranitidine, Atenolol, Sulfasalazine.

[4] = biological target: T2, CDK9/CycT1 (Homo sapiens, UniProt P50750); test: CDK9/CycT1 kinase assay (TR-FRET); type: biochemical; settings: Method 1, 10 μM ATP
T2 construct: Recombinant full-length His-tagged human CDK9 and CycT1; His; purchased Invitrogen PV4131; host or cells: insect cells
In short: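 Full-length His-tagged human CDK9/CycT1 (insect-cell expressed), 15 min compound pre-incubation, then 25 min at 22 °C with 10 µM ATP (final) and 1 µM biotinylated peptide (final) in Tris pH 8.0/MgCl2 buffer. Phospho-substrate detected by TR-FRET (anti-RB pSer807/pSer811, Eu anti-mouse IgG, streptavidin-XL665); 665/622 nm emission ratio as read-out.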

[5] = system: HeLa-MaTu-ADR, multidrug-resistant human cervical carcinoma cells; test: Proliferation assay (crystal violet), HeLa-MaTu-ADR; type: cell-based; settings: read-out: Inhibition of HeLa/MaTu/ADR cell proliferation
Protocol: (§1) Cultivated tumour cells (NCI-H460, human non-small cell lung carcinoma cells, ATCC HTB-177; DU 145, hormone-independent human prostate carcinoma cells, ATCC HTB-81; HeLa-MaTu, human cervical carcinoma cells, EPO-GmbH, Berlin; HeLa-MaTu-ADR, multidrug-resistant human cervical carcinoma cells, EPO-GmbH, Berlin; HeLa human cervical tumour cells, ATCC CCL-2; Caco-2 human colorectal carcinoma, ATCC HTB-37; B16F10 mouse melanoma cells, ATCC CRL-6475) were plated at a density of 5000 cells/well (DU145, HeLa-MaTu-ADR), 3000 cells/well (NCI-H460, HeLa-MaTu, HeLa), 1500 cells/well (Caco-2), or 1000 cells/well (B16F10) in a 96-well multititer plate in 200 μL of their respective growth medium supplemented 10% fetal calf serum. After 24 hours, the cells of one plate (zero-point plate) were stained with crystal violet (see below), while the medium of the other plates was replaced by fresh culture medium (200 μl), to which the test substances were added in various concentrations (0 μM, as well as in the range of 0.001-10 μM; the final concentration of the solvent dimethyl sulfoxide was 0.5%). The cells were incubated for 4 days in the presence of test substances. Cell proliferation was determined by staining the cells with crystal violet: the cells were fixed by adding 20 μl/measuring point of an 11% glutaric aldehyde solution for 15 minutes at room temperature. After three washing cycles of the fixed cells with water, the plates were dried at room temperature. The cells were stained by adding 100 μl/measuring point of a 0.1% crystal violet solution (pH 3.0). After three washing cycles of the stained cells with water, the plates were dried at room temperature. The dye was dissolved by adding 100 μl/measuring point of a 10% acetic acid solution. The extinction was determined by photometry at a wavelength of 595 nm. The change of cell number, in percent, was calculated by normalization of the measured values to the extinction values of the zero-point plate (=0%) and the extinction of the untreated (0 μm) cells (=100%). The IC50 values were determined by means of a 4 parameter fit.

[6] = system: Caco-2 human colorectal carcinoma; test: Proliferation assay (crystal violet), Caco-2; type: cell-based; settings: CACO-2 cells, read-out: Inhibition of CACO-2 cell proliferation
[7] = system: DU 145, hormone-independent human prostate carcinoma cells; test: Proliferation assay (crystal violet), DU 145; type: cell-based; settings: DU145 cells, read-out: Inhibition of DU145 cell proliferation
Protocol: Cultivated tumour cells (NCI-H460, human non-small cell lung carcinoma cells, ATCC HTB-177; DU 145, hormone-independent human prostate carcinoma cells, ATCC HTB-81; HeLa-MaTu, human cervical carcinoma cells, EPO-GmbH, Berlin; HeLa-MaTu-ADR, multidrug-resistant human cervical carcinoma cells, EPO-GmbH, Berlin; HeLa human cervical tumour cells, ATCC CCL-2; Caco-2 human colorectal carcinoma, ATCC HTB-37; B16F10 mouse melanoma cells, ATCC CRL-6475) were plated at a density of 5000 cells/well (DU145, HeLa-MaTu-ADR), 3000 cells/well (NCI-H460, HeLa-MaTu, HeLa), 1500 cells/well (Caco-2), or 1000 cells/well (B16F10) in a 96-well multititer plate in 200 μL of their respective growth medium supplemented 10% fetal calf serum. […] Cell proliferation was determined by staining the cells with crystal violet: the cells were fixed by adding 20 μl/measuring point of an 11% glutaric aldehyde solution for 15 minutes at room temperature. […] The extinction was determined by photometry at a wavelength of 595 nm. The change of cell number, in percent, was calculated by normalization of the measured values to the extinction values of the zero-point plate (=0%) and the extinction of the untreated (0 μm) cells (=100%). The IC50 values were determined by means of a 4 parameter fit.

[8] = system: NCI-H460, human non-small cell lung carcinoma cells; test: Proliferation assay (crystal violet), NCI-H460; type: cell-based; settings: read-out: Inhibition of H460 cell proliferation (activity range)
Protocol: as §1

[9] = system: B16F10 mouse melanoma cells; test: Proliferation assay (crystal violet), B16F10; type: cell-based; settings: B16-F10, read-out: Inhibition of B16F10 cell proliferation
Protocol: as §1

T2 sequence (P50750 whole entry): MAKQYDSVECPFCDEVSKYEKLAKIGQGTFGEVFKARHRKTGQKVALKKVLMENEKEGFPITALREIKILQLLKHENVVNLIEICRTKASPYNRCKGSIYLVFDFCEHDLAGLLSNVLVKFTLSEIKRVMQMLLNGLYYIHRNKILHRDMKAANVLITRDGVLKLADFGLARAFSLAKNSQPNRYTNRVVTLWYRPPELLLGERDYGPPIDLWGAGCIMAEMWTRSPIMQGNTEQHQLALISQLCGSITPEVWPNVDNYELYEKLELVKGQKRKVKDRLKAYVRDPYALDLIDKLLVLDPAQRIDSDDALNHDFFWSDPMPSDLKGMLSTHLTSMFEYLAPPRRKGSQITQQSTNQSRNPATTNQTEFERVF
T2 sequence (O60563 whole entry partner): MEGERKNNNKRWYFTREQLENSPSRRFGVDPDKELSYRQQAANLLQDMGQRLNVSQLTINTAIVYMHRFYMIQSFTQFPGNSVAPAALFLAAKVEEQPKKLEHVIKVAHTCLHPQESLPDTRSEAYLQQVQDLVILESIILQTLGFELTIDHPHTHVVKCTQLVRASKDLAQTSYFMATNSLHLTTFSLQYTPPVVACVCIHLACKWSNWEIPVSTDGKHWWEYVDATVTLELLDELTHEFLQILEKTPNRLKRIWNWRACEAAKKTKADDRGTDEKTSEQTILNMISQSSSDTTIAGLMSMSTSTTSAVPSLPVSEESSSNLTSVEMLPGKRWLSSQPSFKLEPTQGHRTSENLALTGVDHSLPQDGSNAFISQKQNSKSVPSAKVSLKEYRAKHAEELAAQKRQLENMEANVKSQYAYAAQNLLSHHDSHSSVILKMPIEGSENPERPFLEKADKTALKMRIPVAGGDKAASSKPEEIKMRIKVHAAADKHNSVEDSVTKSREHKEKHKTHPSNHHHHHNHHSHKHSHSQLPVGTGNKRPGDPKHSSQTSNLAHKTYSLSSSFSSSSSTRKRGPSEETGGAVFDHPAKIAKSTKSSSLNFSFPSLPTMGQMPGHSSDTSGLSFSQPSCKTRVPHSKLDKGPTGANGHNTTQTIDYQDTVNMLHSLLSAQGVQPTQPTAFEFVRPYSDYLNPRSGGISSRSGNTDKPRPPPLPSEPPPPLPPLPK

IC50 [1] [nM]	IC50 [2] [nM]	efflux ratio at 2 h, 2 μM ([3]; Caco-2, pH 7.2)	Papp A→B at 2 h, 2 μM ([3]; Caco-2 monolayer, 2 μM test compound, 2 h, pH 7.2, read-out: Papp A-B (Mari)) [×10⁻⁶ cm/s]	Papp B→A at 2 h, 2 μM ([3]; Caco-2 monolayer, 2 μM test compound, 2 h, pH 7.2, read-out: Papp B-A (Mari)) [×10⁻⁶ cm/s]	IC50 [4] [nM]	IC50 [5] [nM]	IC50 [6] [nM]	IC50 [7] [nM]	IC50 [8] [nM]	IC50 [9] [nM]	SMILES
290	530	0.43	16.9	7.2	3						CS(=O)(=O)Cc1cccc(Nc2ncnc(-c3ccccc3OCc3cccc(F)c3)n2)c1 [Example 26, 4-{2-[(3-Fluorobenzyl)oxy]phenyl}-N-{3-[(methylsulfonyl)methyl]phenyl}-1,3,5-triazin-2-amine]
	340				3	280	320	350	310	490	CS(=O)(=O)Cc1cccc(Nc2ncnc(-c3ccc(F)cc3OCc3cc(F)cc(F)c3F)n2)c1 [Example 84, 4-{4-Fluoro-2-[(2,3,5-trifluorobenzyl)oxy]phenyl}-N-{3-[(methylsulfonyl)methyl]-phenyl}-1,3,5-triazin-2-amine]
	250				6	220	200	230	270	250	CS(=O)(=O)Cc1cccc(Nc2ncnc(-c3ccc(F)cc3OCc3ccc(F)c(F)c3)n2)c1 [Example 86, 4-{2-[(3,4-Difluoro-benzyl)oxy]-4-fluorophenyl}-N-{3-[(methylsulfonyl)-methyl]phenyl}-1,3,5-triazin-2-amine]
